Measurements as given in US10942183B2, “Methods of detecting progesterone receptor and of detecting an expression level” (REGENTS OF THE UNIVERSITY OF MINNESOTA, priority 2017, dated 2021).

Legend:
[1] = system: PR target gene expression; test: Global gene expression analysis (Illumina HT-12v4) in T47D cells expressing WT or K388R PR-B; format: cell-based, human; conditions: T47D KR PR, antiprogestin 10^-7 M, 6 hours
Experimental: For genome-wide microarray expression analysis, T47D cells expressing pIRES-neo3 empty vector, WT PR, or K388R PR were serum starved in modified improved minimum essential media (IMEM) (Gibco, ThermoFisher Scientific, Waltham, Mass.) for one day before treatment. Eight groups were treated with vehicle control, progesterone (10^−8 M), mifepristone (10^−7 M), aglepristone (10^−7 M), onapristone (10^−7 M), or combined treatment of progesterone+mifepristone, progesterone+aglepristone, or progesterone+onapristone for six hours before RNA extraction using a RNeasy kit (QIAgen). DNase I treated (QIAgen) RNA samples from triplicate experiments were prepared for expression analysis using the Illumina HT-12v4 bead chip platform according to standard protocols. Raw data from agonist-treated cells (progesterone or R5020) collected from two identically performed independent experiments (from this study and a previous study: GSE34148 (Knutson et al. Breast Cancer Res 2012, 14:R95)) was combined, normalized, and batch-corrected to ensure that gene expression values were informative across samples from separate experiments. Data were analyzed within multiple common R (R Core Team: R: A language and environment for statistical computing. R Foundation for Statistical Computing, Vienna, Austria 2015, [available on the world wide web at r-project.org/]) and Bioconductor (Gentleman et al. Genome Biol 2004, 5:R80) packages. Raw intensities were log 2 transformed and quantile normalized using lumi (Du et al. Bioinformatics 2008, 24:1547-1548), batch corrected using sva (Leek et al.: sva: Surrogate Variable Analysis. R package version 3.18.0.), and multiple probes for a single gene were collapsed using genefilter (Gentleman et al.: genefilter: genefilter: methods for filtering genes from high-throughput experiments. R package version 1.52.1). Differentially expressed genes (pairwise comparisons between all eight groups) were analyzed in limma (Smyth: Limma: linear models for microarray data. In: Bioinformatics and computational biology solutions using R and Bioconductor. edn.: Springer; 2005: 397-420), where empirical Bayes was used to better estimate the variance of the genes. Biological comparisons (for example, R5020/vehicle) were presented as log 2 fold change including the Benjamini and Hochberg (BH) adjusted P value (Benjamini et al. J Roy Stat Soc B Met 1995, 57:289-300) to account for multiple hypothesis testing. Expression data is available in the GEO database, accession: GSE94363.
Normalized gene expression data were filtered to isolate only high variance genes using the bioconductor package genefilter (Gentleman et al.: genefilter: genefilter: methods for filtering genes from high-throughput experiments. In., R package version 1.50.0 edn: R package version 1.50.0) using interquartile range cutoff value of 0.85. Non-negative matrix factorization (NMF) was performed within R using the NMF package version 0.20.5 (Gaujoux et al. BMC bioinformatics 2010, 11:367) where matrix factors were rank (2-10) and algorithm (brunet or snmf/r) optimized using the nmf function with parameters nrun=30 and seed=123456. […] Clustering and plots were performed in R (NMF package, a heat map function) using Euclidean distance and UPGMA (average) linkage.
PR ligand-mediated promoter selectivity remains understudied, especially in the context of antiprogestins and posttranslationally modified PR species. […]

[2] = system: PR Ser294 phosphorylation; test: PR Ser294 phosphorylation in T47D cells (Western blotting, immunofluorescence); format: cell-based, human; conditions: T47D cells expressing WT or KR PR
Experimental: T47D human breast cancer cell lines engineered to stably express PR variants (null, WT, K388R, or S294A) were previously described (Knutson et al. Breast Cancer Res 2012, 14:R9). T47D cells were maintained in complete minimal essential medium (cMEM) supplemented with 5% fetal bovine serum (FBS), 1% non-essential amino acids (NEAA), 1% penicillin/streptomycin, 6 ng/ml insulin (CellGro, Manassas, Va., USA, catalog #10-010-CV). T47D cells described above were engineered to also stably express RUNX2 shRNAs via the pLKO.1 knockdown expression vector system, which required 25 μg/ml puromycin for the vector. In various experiments, cells or explants were treated with E2, ICI 182 780, R5020, mifepristone, aglepristone, or onapristone (Arno Therapeutics, Inc., Flemington, N.J.).
Immunocytochemistry was performed on T47D cells expressing PR variants to measure total- and phospho-Ser294 PR levels. 500,000 cells were grown on coverslips in 6-well plates, starved in IMEM plus 5% charcoal stripped FBS, treated, and fixed with 4% paraformaldehyde for 20 min. The cells were permeabilized with 0.3% Triton-X100 before incubating with total-PR (clone Ab8, ThermoFisher Scientific, Waltham, Mass.) or custom phospho-Ser294-PR (clone 8508) antibodies. Cells were incubated with fluorescent secondary antibodies (Alexa Fluor 488) and DAPI mounting medium (Life Technologies, ThermoFisher Scientific, Waltham, Mass.) before visualizing on a Zeiss microscope with A4 and L5 filter cubes. Immunoblotting was performed as previously described (Daniel et al. Mol Endocrinol 2007, 21:2890-2906).
In addition, extensive luminal breast cancer heterogeneity may limit the ability to observe a subset of PR-driven breast cancers without patient selection. In this case, PR target gene expression may provide an accurate means of predicting which breast tumors are likely to be influenced by PR-driven biological pathways enacted by active phospho-Ser294 PRs. To probe changes in PR target gene expression in the presence or absence of commonly used PR ligands (R5020, RU486), including diverse antiprogestins (aglepristone, onapristone) currently in development for clinical use, the well characterized model system of T47D breast cancer cells, stably expressing either unmodified wild-type (WT) PR-B or a transcriptionally hyperactive form of deSUMOylated K388R PR-B (KR; this receptor faithfully mimics phosphorylated PR-B with regard to target gene selection) were used (Knutson et al. Pharmacology & therapeutics 2014, 142:114-125; Daniel et al. Mol Endocrinol 2007, 21:2890-2906). Whether the antiprogestins mifepristone (also called RU486), aglepristone, or onapristone alter PR Ser294 phosphorylation were tested in these T47D breast cancer models. Cells were treated for 1 hour with vehicle, progesterone, mifepristone, aglepristone, or onapristone and whole cell lysates were processed for Western blotting or immunofluorescence (IF) analysis (FIG. 4A, B). […] Greater loss of total KR PR protein was also apparent in the presence of progesterone and selected antiprogestins relative to liganded WT PR, consistent with increased turnover of deSUMOylated active receptors relative to intact WT PRs.

T47D cells = test: Mammosphere formation in T47D cells; format: cell-based, human; conditions: T47D EV, WT, KR or S294A PR-B; estrogen 1 nM, progesterone 10 nM; 14 days
Experimental: Primary Mammospheres: Adherent cells were washed with PBS and dissociated enzymatically in 0.25% trypsin-EDTA (Invitrogen Corporation, Carlsbad, Calif.). Cells were sieved through a 40-μm sieve (BD FALCON, BD Biosciences, Bedford, Mass.) and analyzed microscopically for single-cellularity. Single cells were plated in ultra-low attachment plates (Corning, Inc., Corning, N.Y.) and cultured in a humid incubator. Cells were grown in a serum-free mammary epithelial basal medium (MEBM; Lonza Group, Basel, Switzerland) containing 1% B27 Supplement (Invitrogen Corporation, Carlsbad, Calif.), 1% penicillin-streptomycin (Invitrogen Corporation, Carlsbad, Calif.), 5 μg/ml insulin (Invitrogen Corporation, Carlsbad, Calif.), 20 ng/ml EGF (Sigma-Aldrich, St. Louis, Mo.), 1 ng/ml hydrocortisone (Sigma-Aldrich, St. Louis, Mo.), and 100 μM β-mercaptoethanol. […] Mammosphere Forming Efficiency (MFE) % was calculated by the number of mammospheres per well/number of cells seeded per well.
Secondary Mammospheres: Primary mammospheres were collected by centrifugation (5 min, 1000 rpm), and dissociated enzymatically in 0.25% typsin-EDTA. Cells were sieved through a 40-μm tip strainer (Bel-Art SP Scienceware, South Wayne, N.J.) and analyzed microscopically for single-cellularity. […] Mammosphere Forming Efficiency (MFE) % was calculated by the number of mammospheres per well/number of cells seeded per well. […]

breast cancer = conditions: women receiving tamoxifen; cited from earlier work
[3] = system: PR Ser294 phosphorylation; test: Breast tumor explants, phospho-Ser294 PR IHC; format: cell-based, human; conditions: progesterone 10 nM plus U0126 (1 nM as printed elsewhere in the source), 2 hours
Excerpt: De-identified breast tumor samples were collected after surgery and immediately processed for tissue explant maintenance on sponges in cell culture medium, as previously described (Ravindranathan et al. Nature Communications 2013, 4:1923). Samples were derived from six patients pathologically diagnosed with invasive ductal carcinoma (IDC) and scored positive for ER (94-100%) and PR (1-100%), and negative for HER2 expression. […] In additional experiments, six explants were similarly treated with estrogen or progesterone (2 hours) but in combination with 1 uM U0126 (to inhibit ERKs 1/2) and phospho-Ser294 PR levels were measured by IHC.
ER+ luminal tumors were maintained as explants as above and instead treated with either vehicle or progesterone (10 nM) for 2 hours in the presence or absence of the MEK1/2 inhibitor U0126 (1 nM) prior to IHC staining using specific antibodies for total and phospho-Ser294 PR as well as ER-alpha and phospho-ERK1/2 (n=6; see Methods).

C/C=C\[C@]1(O)CC[C@H]2[C@@H]3CCC4=CC(=O)CCC4=C3[C@@H](c3ccc(N(C)C)cc3)C[C@@]21C [aglepristone]
regulation of PR target genes in cells expressing KR PR [1]: substantially regulate multiple genes in cells expressing KR PR
PR Ser294 phosphorylation, ligand alone ([2]; 1 hour): stimulated robust PR Ser294 phosphorylation
PR Ser294 phosphorylation in the presence of progesterone (co-treatment) ([2]; progesterone plus antiprogestin): also induced Ser294 phosphorylation

C[C@]12CC[C@@H]3c4ccc(O)cc4CC[C@H]3[C@@H]1CC[C@@H]2O [estrogen, estradiol]
total numbers of primary and secondary mammospheres on addition of hormone to culture media (T47D cells): had no significant effect on total numbers in any condition

CC/C(=C(\c1ccccc1)c1ccc(OCCN(C)C)cc1)c1ccccc1 [tamoxifen]
women suffering tumor relapse (breast cancer): ~40%

N#CC(=C(/N)Sc1ccccc1N)/C(C#N)=C(\N)Sc1ccccc1N [U0126]
effect on progesterone-induced PR Ser294 phosphorylation in tumor explants [3]: blocked
